Data from US20250313575A1, “MACROCYCLES AS LRRK2 INHIBITORS, PHARMACEUTICAL COMPOSITIONS, AND USES THEREOF” (Merck Sharp & Dohme LLC, priority 2022, published 2025).

Target: GST-tagged truncated human mutant G2019S LRRK2 (Homo sapiens (Human), UniProt Q5S007, G2019S)
Assay: LRRK2 G2019S Km ATP LanthaScreen assay
Format: biochemical
Settings: G2019S LRRK2, 134 μM ATP (Km ATP), LRRKtide substrate
Summary of the method: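 Ten-point compound series (highest 9.99 μM in DMSO) preincubated 15 min with 1.25 nM GST-tagged truncated human LRRK2 G2019S, then 90 min reaction at ambient temperature with 134 μM ATP (Km) and fluorescein-labelled LRRKtide, pH 8.5. Phosphorylation read as 520/495 nm emission ratio via Tb-labelled antibody; IC50 from 4P logistic regression.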

Sequence of GST-tagged truncated human mutant G2019S LRRK2 (Q5S007 970-2527 G2019S): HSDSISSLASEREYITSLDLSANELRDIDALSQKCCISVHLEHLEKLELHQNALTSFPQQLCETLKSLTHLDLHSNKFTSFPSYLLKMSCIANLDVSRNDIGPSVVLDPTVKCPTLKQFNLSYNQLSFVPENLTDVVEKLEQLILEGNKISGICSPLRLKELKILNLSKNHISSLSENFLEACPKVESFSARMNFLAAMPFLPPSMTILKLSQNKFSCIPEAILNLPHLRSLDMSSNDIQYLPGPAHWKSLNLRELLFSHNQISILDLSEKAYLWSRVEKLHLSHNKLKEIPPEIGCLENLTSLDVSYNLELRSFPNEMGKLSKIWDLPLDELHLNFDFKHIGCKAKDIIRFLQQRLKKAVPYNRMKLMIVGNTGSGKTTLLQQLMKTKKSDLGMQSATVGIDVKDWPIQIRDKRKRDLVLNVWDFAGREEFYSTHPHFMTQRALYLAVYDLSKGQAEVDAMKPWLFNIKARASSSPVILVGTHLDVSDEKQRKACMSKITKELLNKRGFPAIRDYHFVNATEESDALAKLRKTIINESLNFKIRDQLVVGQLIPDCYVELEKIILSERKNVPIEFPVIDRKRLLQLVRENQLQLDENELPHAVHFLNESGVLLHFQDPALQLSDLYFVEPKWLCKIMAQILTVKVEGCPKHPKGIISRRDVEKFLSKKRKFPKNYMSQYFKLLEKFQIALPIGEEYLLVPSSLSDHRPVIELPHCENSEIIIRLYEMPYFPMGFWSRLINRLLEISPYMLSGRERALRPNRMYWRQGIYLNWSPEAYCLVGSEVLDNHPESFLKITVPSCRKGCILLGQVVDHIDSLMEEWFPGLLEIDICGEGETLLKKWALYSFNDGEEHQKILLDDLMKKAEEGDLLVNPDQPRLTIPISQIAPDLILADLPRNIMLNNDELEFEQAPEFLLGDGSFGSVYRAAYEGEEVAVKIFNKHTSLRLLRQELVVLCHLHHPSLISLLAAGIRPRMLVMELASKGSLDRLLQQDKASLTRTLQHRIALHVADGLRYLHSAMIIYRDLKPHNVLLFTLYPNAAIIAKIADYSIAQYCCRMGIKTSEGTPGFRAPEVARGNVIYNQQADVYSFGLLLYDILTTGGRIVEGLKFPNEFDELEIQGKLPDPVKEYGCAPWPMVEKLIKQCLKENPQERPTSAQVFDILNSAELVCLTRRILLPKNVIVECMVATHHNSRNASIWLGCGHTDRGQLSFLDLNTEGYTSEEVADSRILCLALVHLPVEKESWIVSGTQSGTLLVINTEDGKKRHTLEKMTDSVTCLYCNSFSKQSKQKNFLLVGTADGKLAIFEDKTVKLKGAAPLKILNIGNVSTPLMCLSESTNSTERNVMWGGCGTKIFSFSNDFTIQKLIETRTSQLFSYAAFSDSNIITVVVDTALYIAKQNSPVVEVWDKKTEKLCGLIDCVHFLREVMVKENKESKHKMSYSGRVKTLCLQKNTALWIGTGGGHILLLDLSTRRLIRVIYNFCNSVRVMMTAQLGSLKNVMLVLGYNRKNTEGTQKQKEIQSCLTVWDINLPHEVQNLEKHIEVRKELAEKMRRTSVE

| Compound | LRRK2 pIC50 |
| --- | --- |
| Cc1nn(C2CCC2)c2c1OC1COC[C@@H]1CNc1nc(ncc1Cl)N2 (stereo partly drawn) [Ex-2.84, (11aR,14aR)- or (11aS,14aS) 8-chloro-3-cyclobutyl-1-methyl-3,4,10,11,11a,12,14,14a-octahydro-5,9-(azeno)furo[3,4-1]pyrazolo[4,3-b][1]oxa[4,6,10]triazacyclotridecine] | 8.77 |
| Cc1nn(C2CCC2)c2c1OC[C@@H]1COCC[C@H]1Nc1nc(ncc1C(F)(F)F)N2 [Ex-2.34, (4aR,16aS)- or (4aS,16aR)-12-cyclobutyl-14-methyl-7-(trifluoromethyl)-3,4,4a,5,11,12,16,16a-octahydro-1H-6,10-(azeno)pyrano[4,3-k]pyrazolo[4,3-b][1]oxa[4,6,10]triazacyclotridecine] | 8.00 |
| Cc1nn(C2CCC2)c2c1OC[C@H]1CC[C@H]1Nc1nc(ncc1C(F)(F)F)N2 (single isomer, unassigned) [Ex-2.23, (10aR,12aS)- or (10aS,12aR)-3-cyclobutyl-1-methyl-8-(trifluoromethyl)-3,4,10,10a,11,12,12a,13-octahydro-5,9-(azeno)cyclobuta[k]pyrazolo[4,3-b][1]oxa[4,6,10]triazacyclotridecine] | >10.09 |
| Cc1nn(C(C)C)c2c1OC[C@@H]1COC[C@H]1Nc1cc(ncc1C(F)(F)F)N2 [Ex-13.5, (10aS,13aS)-3-isopropyl-1-methyl-8-(trifluoromethyl)-3,4,10a,11,13a,14-hexahydro-10H,13H-5,9-(metheno)furo[3,4-k]pyrazolo[4,3-b][1]oxa[4,6,10]triazacyclotridecine] | >10.09 |
| Cc1nn(C2CCC2)c2c1OC1COC[C@H]1CNc1nc(ncc1C(F)(F)F)N2 (single isomer, unassigned) [Ex-2.82, (11aR,14aS) or (11aS,14aR)-3-cyclobutyl-1-methyl-8-(trifluoromethyl)-3,4,10,11,11a,12,14,14a-octahydro-5,9-(azeno)furo[3,4-1]pyrazolo[4,3-b][1]oxa[4,6,10]triazacyclotridecine] | 9.60 |
| Cc1nn(C2CCC2)c2c1OCCC(C)Nc1nc(ncc1C(F)(F)F)N2 (single isomer, unassigned) [Ex-2.7, (R)- or (S)-1-cyclobutyl-3,7-dimethyl-10-(trifluoromethyl)-1,5,6,7,8,14-hexahydro-9,13-(azeno)pyrazolo[4,3-b][1]oxa[4,6,10]triazacyclotridecine] | 7.21 |
| COc1cccc2c1Nc1ncc(Cl)c(n1)N[C@@H]1COC[C@H]1CO2 [Ex-15.2, (3aS,16aS)-6-chloro-11-methoxy-3a,4,16,16a-tetrahydro-1H,3H,10H-5,9-(azeno)benzo[b]furo[3,4-k][1]oxa[4,6,10]triazacyclotridecine] | 9.65 |
| N#CC1CC1c1nn(C2CCC2)c2c1OC[C@@H]1COC[C@H]1Nc1nc(ncc1C(F)(F)F)N2 (single isomer, unassigned) [Ex-2.51, (1R,2R)- or (1S,2S)-2-((10aS,13aS)-3-cyclobutyl-8-(trifluoromethyl)-3,4,10a,11,13a, 14-hexahydro-10H,13H-5,9-(azeno)furo[3,4-k]pyrazolo[4,3-b][1]oxa[4,6,10]triazacyclotridecin-1-yl)cyclopropane-1-carbonitrile] | 9.05 |
| O[C@@H]1COCC1n1nc(C2CC2)c2c1OC[C@H]1CC[C@@H]1Nc1nc(ncc1C(F)(F)F)N2 (single isomer, unassigned) [Ex-6.2, (3R,4S)-4-((10aR,12aR)- or (3R,4S)-4-((10aS,12aS)- or (3S,4R)-4-((10aR,12aR)- or (3S,4R)-4-((10aR,12aR)-3-cyclopropyl-8-(trifluoromethyl)-10,10a,11,12,12a,13-hexahydro-5,9-(azeno)cyclobuta[k]pyrazolo[3,4-b][1]oxa[4,6,10]triazacyclotridecin-1 (4H)-yl)tetrahydrofuran-3-ol] | >10.09 |
| Cc1c2c(nn1C1CC1)Nc1ncc(C(F)(F)F)c(n1)N[C@H](C)CCO2 (single isomer, unassigned) [Ex-17.2, (R)- or (S)-2-cyclopropyl-3,7-dimethyl-10-(trifluoromethyl)-2,5,6,7,8,14-hexahydro-9,13-(azeno)pyrazolo[4,3-b][1]oxa[4,6,10]triazacyclotridecine] | 8.24 |
| Cc1nn(C(C)C)c2c1OCCC(C)Nc1nc(ncc1C(F)(F)F)N2 (single isomer, unassigned) [Ex-2.8, (R)- or (S)-1-isopropyl-3,7-dimethyl-10-(trifluoromethyl)-1,5,6,7,8,14-hexahydro-9,13-(azeno)pyrazolo[4,3-b][1]oxa[4,6,10]triazacyclotridecine] | 9.48 |
| CC(C)n1nc(CO)c2c1Nc1ncc(C(F)(F)F)c(n1)N[C@@H]1COC[C@H]1CO2 [Ex-6.7, ((10aS,13aS)-3-isopropyl-8-(trifluoromethyl)-3,4,10a,11,13a,14-hexahydro-10H,13H-5,9-(azeno)furo[3,4-k]pyrazolo[4,3-b][1]oxa[4,6,10]triazacyclotridecin-1-yl)methanol] | >10.09 |
| Cc1nn(C2CC2)c2c1OC[C@@H]1CC[C@H]1Nc1nc(ncc1C(F)(F)F)N2 [Ex-2.68, (10aR,12aR)-3-cyclopropyl-1-methyl-8-(trifluoromethyl)-3,4,10,10a,11,12,12a,13-octahydro-5,9-(azeno)cyclobuta[k]pyrazolo[4,3-b][1]oxa[4,6,10]triazacyclotridecine] | >10.09 |
| CC(C)(C#N)c1nn(C2CCC2)c2c1OC[C@H]1CC[C@@H]1Nc1nc(ncc1C(F)(F)F)N2 [Ex-2.53, 2-((10aS,12aS)- or 2-((10aR,12aR)-3-cyclobutyl-8-(trifluoromethyl)-3,4,10,10a,11,12,12a,13-octahydro-5,9-(azeno)cyclobuta[k]pyrazolo[4,3-b][1]oxa[4,6,10]triazacyclotridecin-1-yl)-2-methylpropanenitrile] | 9.64 |
| Cc1nn(C)c2c1OC[C@H]1COC[C@H]1Nc1nc(ncc1C(F)(F)F)N2 [Ex-2.24, (10aS,13aR)- or (10aR,13aS)-1,3-dimethyl-8-(trifluoromethyl)-3,4,10a,11,13a,14-hexahydro-10H,13H-5,9-(azeno)furo[3,4-k]pyrazolo[4,3-b][1]oxa[4,6,10]triazacyclotridecine] | 6.05 |
| Cc1nn(C2CCC2)c2c1OC[C@H]1CC(F)(F)C[C@@H]1Nc1nc(ncc1C(F)(F)F)N2 [Ex-4.1, 3-Cyclobutyl-12,12-difluoro-1-methyl-8-(trifluoromethyl)-3,4,10a,11,12,13,13a,14-octahydro-10H-5,9-(azeno)cyclopenta[k]pyrazolo[4,3-b][1]oxa[4,6,10]triazacyclotridecine] | 6.25 |
| Cc1nn(C2CCC2)c2c1OC[C@@H]1COC[C@H]1Nc1nc(ncc1Cl)N2 [Ex-2.49, (10aS,13aS)-8-chloro-3-cyclobutyl-1-methyl-3,4,10a,11,13a,14-hexahydro-10H,13H-5,9-(azeno)furo[3,4-k]pyrazolo[4,3-b][1]oxa[4,6,10]triazacyclotridecine] | >10.09 |
| Cc1nn(C)c2c1OCC1CC[C@H]1Nc1nc(ncc1C(F)(F)F)N2 (stereo partly drawn) [Ex-2.12, (10aR,12aS)- or (10aS,12aR)-1,3-dimethyl-8-(trifluoromethyl)-3,4,10,10a,11,12,12a,13-octahydro-5,9-(azeno)cyclobuta[k]pyrazolo[4,3-b][1]oxa[4,6,10]triazacyclotridecine] | 7.61 |
| COC1CCC1n1nc(C)c2c1Nc1ncc(C(F)(F)F)c(n1)NC1COCC1CO2 [Ex-2.36, (10aS,13aS)-3-((1R,2R)-(10aS,13aS)-3-((1S,2R)-(10aS,13aS)-3-((1R,2S)-(10aS,13aS)-3-((1R,2R)-(10aR,13aR)-3-((1S,2R)-(10aR,13aR)-3-((1R,2S)-2-methoxycyclobutyl)-1-methyl-8-(trifluoromethyl)-3,4,10a,11,13a,14-hexahydro-10H,13H-5,9-(azeno)furo[3,4-k]pyrazolo[4,3-b][1]oxa[4,6,10]triazacyclotridecine] | 6.31 |
| Cc1nn(C2CCC2)c2c1OC[C@H]1CC[C@H]1Nc1nc(ncc1C(F)(F)F)N2 (single isomer, unassigned) [Ex-2.22, (10aR,12aS)- or (10aS,12aR)-3-cyclobutyl-1-methyl-8-(trifluoromethyl)-3,4,10,10a,11,12,12a,13-octahydro-5,9-(azeno)cyclobuta[k]pyrazolo[4,3-b][1]oxa[4,6,10]triazacyclotridecine] | 5.76 |
| Cc1nn(C2CCC2)c2c1OC1COC[C@@H]1CNc1nc(ncc1Cl)N2 (stereo partly drawn) [Ex-2.83, (11aR,14aR)- or (11aS,14aS) 8-chloro-3-cyclobutyl-1-methyl-3,4,10,11,11a,12,14,14a-octahydro-5,9-(azeno)furo[3,4-1]pyrazolo[4,3-b][1]oxa[4,6,10]triazacyclotridecine] | 5.76 |
| FC(F)(F)c1cnc2nc1N[C@@H]1COC[C@H]1COc1cc(Cl)ncc1N2 [Ex-15.8, (3aS,16aS)-13-chloro-6-(trifluoromethyl)-3a,4,16,16a-tetrahydro-1H,3H,10H-5,9-(azeno)furo[3,4-k]pyrido[4,3-b][1]oxa[4,6,10]triazacyclotridecine] | 9.04 |
| (R)- or (S)-1-cyclopropyl-3,7-dimethyl-10- (trifluoromethyl)-1,5,6,7,8,14-hexahydro- 9,13-(azeno)pyrazolo[4,3- b][1]oxa[4,6,10]triazacyclotridecine [Ex-2.21] | 9.00 |
| Cn1nc(C(F)(F)F)c2c1OCC1COC[C@H]1Nc1nc(ncc1C(F)(F)F)N2 (stereo partly drawn) [Ex-1.2, (10aS,13aS)-1-Methyl-3,8-bis(trifluoromethyl)-1,4,10a,11,13a,14-hexahydro-10H,13H-5,9-(azeno)furo[3,4-k]pyrazolo[3,4-b][1]oxa[4,6,10]triazacyclotridecine] | >10.09 |
